Data published in the supplement of paper PMC10307832.

Assays:
Test in all cases: relative viability (nuclei count vs DMSO), 5 days (fraction); higher = more cells survive
[1] = compound: Cc1ccc(C(=O)Nc2cccc(C(F)(F)F)c2)cc1Nc1cncc(C(N)=O)c1 [ALW-II-49-7] + Nc1ncn([C@H]2C[C@H](O)[C@@H](CO)O2)c(=O)n1 [Decitabine] (partner 2 µM)
How it was run: (§1)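 A single step with final 0.05% Triton X-100, 1% formaldehyde and 1 ug/ml Hoechst fixed the cells and stained nuclei 5 days after treatment. Lung cancer cell lines in 1536-well plates had been treated by pin tool the day after seeding with one drug alone or a fixed anchor-drug dose plus five library-drug doses (not always all listed) in √10 steps, and nuclei were counted on 4× images. Relative viability is the ratio of nuclei in treated wells to nuclei in vehicle wells, taken as the median of duplicate plates.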

[2] = compound: Cc1ccc(C(=O)Nc2cccc(C(F)(F)F)c2)cc1Nc1cncc(C(N)=O)c1 [ALW-II-49-7] + O=C(c1cc(Cc2n[nH]c(=O)c3ccccc23)ccc1F)N1CCN(C(=O)C2CC2)CC1 [Olaparib] (partner 8 µM)
How it was run: as §1

[3] = compound: Cc1nc(Nc2ncc(C(=O)Nc3c(C)cccc3Cl)s2)cc(N2CCN(CCO)CC2)n1 [Dasatinib] + Cc1nc(NC(=O)N2CCC[C@H]2C(N)=O)sc1-c1ccnc(C(C)(C)C(F)(F)F)c1 [Alpelisib] (partner 2 µM)
How it was run: as §1

[4] = compound: Cc1nc(Nc2ncc(C(=O)Nc3c(C)cccc3Cl)s2)cc(N2CCN(CCO)CC2)n1 [Dasatinib] + O=C(c1cc(Cc2n[nH]c(=O)c3ccccc23)ccc1F)N1CCN(C(=O)C2CC2)CC1 [Olaparib] (partner 8 µM)
How it was run: as §1

Row | Cell Line | relative viability ([1]; first compound 0.08 µM) | relative viability ([1]; first compound 0.253 µM) | relative viability ([1]; first compound 0.8 µM) | relative viability ([1]; first compound 2.53 µM) | relative viability ([1]; first compound 8 µM) | relative viability ([2]; first compound 0.08 µM) | relative viability ([2]; first compound 0.253 µM) | relative viability ([2]; first compound 0.8 µM) | relative viability ([2]; first compound 2.53 µM) | relative viability ([2]; first compound 8 µM) | relative viability ([3]; first compound 0.005 µM) | relative viability ([3]; first compound 0.01581 µM) | relative viability ([3]; first compound 0.05 µM) | relative viability ([3]; first compound 0.1581 µM) | relative viability ([3]; first compound 0.5 µM) | relative viability ([4]; first compound 0.005 µM) | relative viability ([4]; first compound 0.01581 µM) | relative viability ([4]; first compound 0.05 µM) | relative viability ([4]; first compound 0.1581 µM) | relative viability ([4]; first compound 0.5 µM)
1 | NCI-H1666 | 0.751 | 0.735 | 0.735 | 0.898 | 0.714 | 0.692 | 0.798 | 0.684 | 0.738 | 0.728 | 0.964 | 0.855 | 0.844 | 0.563 | 0.31 | 0.756 | 0.752 | 0.73 | 0.782 | 0.676
2 | NCI-H1793 | 0.518 | 0.527 | 0.516 | 0.471 | 0.53 | 0.977 | 0.834 | 0.785 | 0.911 | 0.753 | 0.554 | 0.45 | 0.545 | 0.512 | 0.443 | 0.69 | 0.404 | 0.385 | 0.367 | 0.521
3 | NCI-H1437 | 0.551 | 0.553 | 0.594 | 0.624 | 0.644 | 0.611 | 0.631 | 0.658 | 0.647 | 0.601 | 1.03 | 0.893 | 1.03 | 0.735 | 0.513 | 0.636 | 0.624 | 0.656 | 0.566 | 0.532
4 | NCI-H358 | 0.19 | 0.183 | 0.22 | 0.234 | 0.232 | 0.431 | 0.545 | 0.644 | 0.452 | 0.387 | 0.726 | 0.585 | 0.458 | 0.24 | 0.204 | 0.464 | 0.431 | 0.427 | 0.303 | 0.139
5 | NCI-H1792 | 0.553 | 0.356 | 0.486 | 0.506 | 0.633 | 0.501 | 0.384 | 0.6 | 0.327 | 0.342 | 0.73 | 0.431 | 0.532 | 0.389 | 0.153 | 0.385 | 0.348 | 0.411 | 0.2 | 0.0885
6 | NCI-H1355 | 0.329 | 0.366 | 0.391 | 0.436 | 0.376 | 0.68 | 0.822 | 0.846 | 0.655 | 0.651 | 0.674 | 0.621 | 0.652 | 0.53 | 0.297 | 0.747 | 0.541 | 0.73 | 0.582 | 0.442
7 | SK-LU-1 | 0.658 | 0.61 | 0.489 | 0.639 | 0.5 | 0.543 | 0.49 | 0.451 |  | 0.362 | 0.623 | 0.399 | 0.318 | 0.2 | 0.234 | 0.471 | 0.317 | 0.323 | 0.188 | 0.167
8 | NCI-H2170 | 0.542 | 0.478 | 0.5 | 0.464 | 0.468 | 0.76 | 0.595 | 0.562 | 0.535 | 0.603 | 0.738 | 0.649 | 0.644 | 0.449 | 0.382 | 0.585 | 0.572 | 0.525 | 0.427 | 0.263
